Measured values as given in US20080292584A1 (priority 2005, published 2008).
“And” between values parts separate entries of the source, which are not always exact repeats. Equal entries are not always repeated.

Key:
[1] = tested on: CYP2B6; test: Induction/inhibition of CYP2B6 activity in cryopreserved human hepatocytes (S-mephenytoin); conditions: human; for Nirvanol formation Adjusted Mean ± SD: 48 h
Text: Hepatocytes from three human donors were obtained from a cryopreserved hepatocyte bank (In Vitro Technologies, Inc., USA). After thawing, viable hepatocytes were transferred to collagen-coated 48-well plates for attachment in plating medium (DMEM stock (Dulbecco's modified Eagle's medium, supplemented with bovine serum albumin, fructose, N-(2-hydroxyethyl)piperazine-N′-(2-ethanesulfonate) (HEPES), and sodium bicarbonate), supplemented with antibiotics, bovine serum, hydrocortisone, insulin and minimum essential medium (MEM) nonessential amino acids). After attachment to the collagen matrix, plating medium was replaced with sandwich medium (plating medium supplemented with VITROGEN) and incubated until use.
The supplemented KHB was replaced with 150 μL supplemented KHB containing the appropriate isoform-selective substrate and incubated for 4 hrs prior to termination by adding 150 μL ice-cold methanol, except for the CYP2C8 incubations which were terminated by adding 150 μL acetonitrile.
All substrates were dissolved in acetonitrile.
Replicate trials and controls were performed. […] Additionally, reference control samples were included to evaluate inducibility of CYP2B6, CYP2C9, and CYP2C19 in the test system.
Mean specific activity values with associated p-values≦0.05 were deemed to be statistically significant.

[2] = biological target: T1, CYP2A6 (Homo sapiens, UniProt P11509); test: Metabolism of metaxalone by expressed recombinant human CYP2A6 at 5 or 20 pmol (Example 4); conditions: for % Turnover Mean / [metaxalone] Mean / % Turnover % / [metaxalone]: 60 min; for % Turnover % / [metaxalone]: single replicates
T1 sequence (P11509 1-494): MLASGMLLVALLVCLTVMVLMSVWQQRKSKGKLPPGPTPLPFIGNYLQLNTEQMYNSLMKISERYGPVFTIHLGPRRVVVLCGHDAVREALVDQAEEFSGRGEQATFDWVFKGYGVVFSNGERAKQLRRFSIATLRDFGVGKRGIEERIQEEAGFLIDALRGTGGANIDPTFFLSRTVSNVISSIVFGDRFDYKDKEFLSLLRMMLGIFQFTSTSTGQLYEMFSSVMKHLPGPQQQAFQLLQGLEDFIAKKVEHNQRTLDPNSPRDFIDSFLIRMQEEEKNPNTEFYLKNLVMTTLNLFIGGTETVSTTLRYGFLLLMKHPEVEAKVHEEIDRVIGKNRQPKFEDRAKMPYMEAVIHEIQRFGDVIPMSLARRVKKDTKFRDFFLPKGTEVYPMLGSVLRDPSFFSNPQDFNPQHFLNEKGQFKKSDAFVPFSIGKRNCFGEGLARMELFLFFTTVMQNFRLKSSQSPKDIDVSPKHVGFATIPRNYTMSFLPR

[3] = biological target: T2, CYP2B6 (Homo sapiens, UniProt P20813); test: Inhibition of CYP2B6 activity in pooled human liver microsomes (S-mephenytoin 1 mM to nirvanol); format: in vitro ADME
T2 sequence (P20813 1-491): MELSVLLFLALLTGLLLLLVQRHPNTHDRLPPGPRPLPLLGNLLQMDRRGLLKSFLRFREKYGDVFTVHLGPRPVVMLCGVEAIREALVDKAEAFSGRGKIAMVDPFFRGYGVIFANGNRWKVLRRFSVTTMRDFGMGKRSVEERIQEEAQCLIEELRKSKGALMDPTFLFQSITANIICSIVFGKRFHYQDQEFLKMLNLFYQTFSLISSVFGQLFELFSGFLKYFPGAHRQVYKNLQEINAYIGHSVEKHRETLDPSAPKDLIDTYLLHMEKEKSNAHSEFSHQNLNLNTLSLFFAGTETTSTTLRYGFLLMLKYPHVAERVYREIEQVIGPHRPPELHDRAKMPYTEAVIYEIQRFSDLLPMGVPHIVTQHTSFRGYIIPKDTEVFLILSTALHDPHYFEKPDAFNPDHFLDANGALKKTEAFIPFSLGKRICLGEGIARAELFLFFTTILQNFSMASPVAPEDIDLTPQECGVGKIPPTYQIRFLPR
Experimental: All other incubations were for 30 minutes.
Four replicates were performed.
Two replicates were performed.

[4] = biological target: T3, CYP2C19 (Homo sapiens, UniProt P33261); test: Metabolism of metaxalone by expressed recombinant human CYP2C19 at 5 or 20 pmol (Example 4); conditions: for percent turnover / % Turnover Mean / [metaxalone] Mean / % Turnover % / [metaxalone]: 60 min; for % Turnover % / [metaxalone]: single replicates, listed as Metaxalone
[5] = biological target: T3, CYP2C19; test: Chemical inhibition of metaxalone turnover in human liver microsomes, CYP2C19 inhibitor ticlopidine; conditions: 1 mg/mL HLM, 60 min, with ticlopidine; for % Turnover / % inhibition of turnover / Conc.: single replicates
Experimental: Human liver microsomes pooled from 15 individuals (male and female) (Pool HMMC-PL020; CellzDirect, Inc., In Vitro Products and Services Division) were used in some experiments of this study.
% Turnover=100−{[TA(final)]/[mean of TA(0 min)]}×100,
% Inhibition of Turnover=100{1−([TA(0 min)]−[TA(final-inhibitor)])/([TA(0 min)]−[TA(final-no inhibitor)])}.
The inhibitors or vehicle control were incubated with the pooled human liver microsomes (1 mg/mL) and NADPH (1 mM) in 0.1 M phosphate buffer, pH 7.4. […] Incubations were conducted in triplicate and terminated by addition of organic solvent. Samples were extracted and analyzed by LC-MS/MS as described above.

[6] = 0.75 μM metaxalone, 5 pmol cyp, listed as Metaxalone
[7] = 0.75 μM metaxalone, 20 pmol cyp
[8] = 0.75 μM metaxalone, 20 pmol cyp, listed as Metaxalone
[9] = 7.5 μM metaxalone, 5 pmol cyp, listed as Metaxalone
[10] = 7.5 μM metaxalone, 20 pmol cyp, listed as Metaxalone

T3 sequence (P33261 whole entry): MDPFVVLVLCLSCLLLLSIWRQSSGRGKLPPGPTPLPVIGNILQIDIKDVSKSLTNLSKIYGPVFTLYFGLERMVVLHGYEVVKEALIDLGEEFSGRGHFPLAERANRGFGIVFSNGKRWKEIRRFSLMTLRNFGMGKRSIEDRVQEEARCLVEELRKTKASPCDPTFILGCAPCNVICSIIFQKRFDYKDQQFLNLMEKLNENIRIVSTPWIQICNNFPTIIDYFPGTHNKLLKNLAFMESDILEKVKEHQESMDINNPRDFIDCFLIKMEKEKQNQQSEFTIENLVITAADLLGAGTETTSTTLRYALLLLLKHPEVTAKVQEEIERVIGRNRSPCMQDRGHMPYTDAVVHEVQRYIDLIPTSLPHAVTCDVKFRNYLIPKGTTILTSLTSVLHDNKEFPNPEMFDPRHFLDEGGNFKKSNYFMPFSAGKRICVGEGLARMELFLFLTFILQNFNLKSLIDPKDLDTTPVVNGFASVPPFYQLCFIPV

Cc1cc(C)cc(OCC2CNC(=O)O2)c1 (stereo not shown) [metaxalone, 5-[(3,5-dimethylphenoxy)methyl]-2-oxazolidinone] was tested, and the Inducer/Inhibitor [1] was 0, the “Nirvanol formation Adjusted Mean ± SD” value ([1]; 0.4 μM) was 0.0340 ± 0.000883 µM and the “Nirvanol formation Adjusted Mean ± SD” value ([1]; 4 μM) was 0.0305 ± 0.00272 µM. The “% Turnover Mean” value ([2]; 0.75 μM metaxalone, 5 pmol cyp) was 0.14%, the “[metaxalone] Mean” value ([2]; 0.75 μM metaxalone, 5 pmol cyp) was 0.790 µM and the “% Turnover %” value ([2]; 0.75 μM metaxalone, 5 pmol cyp) was −4.1%. The “% Turnover %” value [2, 6] was 1.8% and 2.8%, the “[metaxalone]” value [2, 6] was 0.777 µM and 0.824 µM and 0.769 µM and the “% Turnover Mean” value [2, 7] was 0.91%. For the same compound, the “[metaxalone] Mean” value [2, 7] was 0.784 µM, the “% Turnover %” value [2, 7] was −5.7% and the “% Turnover %” value [2, 8] was 3.7% and 4.8%. The “[metaxalone]” value [2, 8] was 0.837 µM and 0.762 µM and 0.753 µM, the “% Turnover Mean” value ([2]; 7.5 μM metaxalone, 5 pmol cyp) was 3.7% and the “[metaxalone] Mean” value ([2]; 7.5 μM metaxalone, 5 pmol cyp) was 8.14 µM. For the same compound, the “% Turnover %” value ([2]; 7.5 μM metaxalone, 5 pmol cyp) was −2.3%, the “% Turnover %” value [2, 9] was 9.0% and 4.3% and the “[metaxalone]” value [2, 9] was 7.69 µM and 8.08 µM and 8.64 µM. For the same compound, the “% Turnover Mean” value ([2]; 7.5 μM metaxalone, 20 pmol cyp) was −1.8%, the “[metaxalone] Mean” value ([2]; 7.5 μM metaxalone, 20 pmol cyp) was 8.59 µM and the “% Turnover %” value [2, 10] was −1.6% and 6.1% and −9.8%. For the same compound, the “[metaxalone]” value [2, 10] was 8.58 µM and 7.93 µM and 9.27 µM, the Substrate ([2]; CYP isozyme 2A6, summary of studies) was 0 and the “inhibition of CYP activity at a statistically significant level” value ([3]; 0.3-100 μM metaxalone, p≦0.05) was “inhibited”. The Inhibitor ([3]; CYP isozyme 2B6, summary of studies) was “+”, the “Percent of VC” value ([3]; metaxalone 0.3 μM) was 90.2% and the “Specific Activity Individual” value ([3]; metaxalone 0.3 μM) was 27.9 pmol/min/mg protein and 25.6 pmol/min/mg protein and 27.5 pmol/min/mg protein. For the same compound, the “Specific Activity Mean ± SD” value ([3]; metaxalone 0.3 μM) was 27.0 ± 1.21 pmol/min/mg protein, the “Percent of VC” value ([3]; metaxalone 1 μM) was 99.5% and the “Specific Activity Individual” value ([3]; metaxalone 1 μM) was 27.3 pmol/min/mg protein and 29.5 pmol/min/mg protein and 32.6 pmol/min/mg protein. The “Specific Activity Mean ± SD” value ([3]; metaxalone 1 μM) was 29.8 ± 2.68 pmol/min/mg protein, the “Percent of VC” value ([3]; metaxalone 3 μM) was 90.6% and the “Specific Activity Individual” value ([3]; metaxalone 3 μM) was 26.3 pmol/min/mg protein and 26.9 pmol/min/mg protein and 28.2 pmol/min/mg protein. The “Specific Activity Mean ± SD” value ([3]; metaxalone 3 μM) was 27.1 ± 1.00 pmol/min/mg protein, the “Percent of VC” value ([3]; metaxalone 30 μM) was 96.6% and the “Specific Activity Individual” value ([3]; metaxalone 30 μM) was 28.9 pmol/min/mg protein and 28.7 pmol/min/mg protein and 29.2 pmol/min/mg protein. For the same compound, the “Specific Activity Mean ± SD” value ([3]; metaxalone 30 μM) was 28.9 ± 0.216 pmol/min/mg protein, the “Percent of VC” value ([3]; metaxalone 100 μM) was 83.7% and the “Specific Activity Individual” value ([3]; metaxalone 100 μM) was 24.9 pmol/min/mg protein and 24.6 pmol/min/mg protein and 25.7 pmol/min/mg protein. The “Specific Activity Mean ± SD” value ([3]; metaxalone 100 μM) was 25.1 ± 0.581 pmol/min/mg protein, the percent turnover ([4]; 0.75 μM metaxalone, 5 pmol CYP450) was 6.9% and the “% Turnover Mean” value ([4]; 0.75 μM metaxalone, 5 pmol cyp) was 6.9%. The “[metaxalone] Mean” value ([4]; 0.75 μM metaxalone, 5 pmol cyp) was 0.662 µM, the “% Turnover %” value ([4]; 0.75 μM metaxalone, 5 pmol cyp) was 2.2% and 7.6% and 11.0% and the “[metaxalone]” value ([4]; 0.75 μM metaxalone, 5 pmol cyp) was 0.696 µM and 0.658 µM and 0.634 µM. For the same compound, the percent turnover ([4]; 0.75 μM metaxalone, 20 pmol CYP450) was 12.5%, the “% Turnover Mean” value [4, 7] was 12.5% and the “[metaxalone] Mean” value [4, 7] was 0.623 µM. The “% Turnover %” value [4, 7] was 7.4% and 13.3% and 16.9%, the “[metaxalone]” value [4, 7] was 0.659 µM and 0.618 µM and 0.591 µM and the percent turnover ([4]; 7.5 μM metaxalone, 5 pmol CYP450) was 6.3%. For the same compound, the “% Turnover Mean” value ([4]; 7.5 μM metaxalone, 5 pmol cyp) was 6.3%, the “[metaxalone] Mean” value ([4]; 7.5 μM metaxalone, 5 pmol cyp) was 7.23 µM and the “% Turnover %” value ([4]; 7.5 μM metaxalone, 5 pmol cyp) was 0.25% and 7.1% and 11.6%. For the same compound, the “[metaxalone]” value ([4]; 7.5 μM metaxalone, 5 pmol cyp) was 7.69 µM and 7.17 µM and 6.82 µM, the percent turnover ([4]; 7.5 μM metaxalone, 20 pmol CYP450) was 18.7% and the “% Turnover Mean” value ([4]; 7.5 μM metaxalone, 20 pmol cyp) was 18.7%. For the same compound, the “[metaxalone] Mean” value ([4]; 7.5 μM metaxalone, 20 pmol cyp) was 6.27 µM, the “% Turnover %” value ([4]; 7.5 μM metaxalone, 20 pmol cyp) was 20.2% and 18.0% and 17.8% and the “[metaxalone]” value ([4]; 7.5 μM metaxalone, 20 pmol cyp) was 6.16 µM and 6.32 µM and 6.34 µM. For the same compound, the Substrate ([4]; CYP isozyme 2C19, summary of studies) was “+”, the “% Turnover Mean” value ([5]; 0.75 μM metaxalone) was 8.16% and the “% inhibition of turnover Mean” value ([5]; 0.75 μM metaxalone) was 72.6%. The “Mean Conc.” value ([5]; 0.75 μM metaxalone) was 0.709 µM, the “% Turnover” value ([5]; 0.75 μM metaxalone) was 9.6% and 7.5% and 7.4% and the “% inhibition of turnover” value ([5]; 0.75 μM metaxalone) was 67.9% and 74.7% and 75.2%. The “Conc.” value ([5]; 0.75 μM metaxalone) was 0.698 µM and 0.714 µM and 0.715 µM, the “% Turnover Mean” value ([5]; 7.5 μM metaxalone) was 1.71% and the “% inhibition of turnover Mean” value ([5]; 7.5 μM metaxalone) was 93.1%. For the same compound, the “Mean Conc.” value ([5]; 7.5 μM metaxalone) was 8.37 µM, the “% Turnover” value ([5]; 7.5 μM metaxalone) was 5.8% and 11.0% and −11.6% and the “% inhibition of turnover” value ([5]; 7.5 μM metaxalone) was 76.5% and 55.5% and 147%. The “Conc.” value ([5]; 7.5 μM metaxalone) was 8.02 µM and 7.58 µM and 9.50 µM.
